Measured values: publication PMC3561256, “Anti-infectious and anti-inflammatory effects of peptide fragments sequentially derived from the antimicrobial peptide centrocin 1 isolated from the green sea urchin, Strongylocentrotus droebachiensis” (AMB Express, 2012)

Key:
S. aureus (ATCC 12600) [1] = assay: Minimal microbicidal concentration (MMC99) assay; assay type: cell-based, Staphylococcus aureus
Description: (§1) All the synthesised peptides were tested for their in vitro microbicidal activity against S. aureus (American Type Culture Collection (ATCC) 12600) and P. aeruginosa (ATCC 15442) using a minimal microbicidal concentration (MMC) assay as previously described (Haversen et al. [2010]). Bacteria were cultured in 3.7% brain heart infusion (BHI) broth (Difco, BD Diagnostics, Franklin Lakes, NJ) on a shaker at 250 rpm overnight at 37°C. The culture was diluted 1:10 in fresh 3.7% BHI and incubated for two additional hours to reach log-phase growth. The bacteria were pelleted by centrifugation at 900 × g and suspended in 0.037% BHI to a concentration of 10^7 CFU/mL, estimated by measuring optical density at 600 nm (OD600). To investigate the influence of physiological conditions on microbicidal effect of the peptides, four different assay media were used: 0.037% BHI, 0.037% BHI supplemented with 85 or 150 mM sodium chloride (NaCl), and 50% heat inactivated simulated wound fluid (h.i. SWF) composed of a 50:50 mixture of 0.1% peptone (Oxoid, Basingstoke, UK) in 150 mM NaCl and fetal bovine serum (FBS; PAA Laboratories GmbH, Pasching, Austria), diluted two times in ultra pure water. The peptides were serially diluted by twofold steps from 200 to 1.56 mg/L in the assay media used, and 100 μL of the peptide solutions were mixed with 5 μL bacterial suspensions in a 96 well plate (Nunc, Roskilde, Denmark) and incubated at 37°C for two hours. An aliquot of 5 μL from each well was aspirated and added as drops onto blood agar plates (Columbia agar; Oxoid, Basingstoke, UK) supplemented with 5% defibrinated horse blood (Swedish National Veterinary Institute (SVA), Uppsala, Sweden), and the plates were incubated overnight at 37°C. All samples were processed as duplicates. The minimal test compound concentration causing ≥99% reduction of bacteria was defined as the MMC99. The concentration of the bacterial suspension used in the assay was confirmed by viable count estimation on blood agar plates (Oxoid).
(§2) CEN1 HC was further screened for microbicidal activity against a panel of microbial strains using the MMC99 assay, as described above, except using only two different assay media; 0.037% BHI and 50% h.i. SWF. The following microbial strains were tested for sensitivity: S. aureus (ATCC 12600), MRSA (ATCC 33591), Staphylococcus epidermidis (ATCC 12228), Streptococcus pyogenes (ATCC 12344), Propionibacterium acnes (ATCC 6919) Escherichia coli (ATCC 11775), P. aeruginosa (ATCC 15442), Klebsiella pneumoniae (Culture collection, University of Gothenburg (CCUG) 59413, clinical isolate resistant to penicillins, cephalosporins, aztreonam and carbapenems, with the reference strain ATCC 13883), Acinetobacter baumannii (CCUG 58437, clinical isolate resistant to tobramycin, trimsulfa, ciprofloxacin, cefotaxim, ceftazidim, meropenem, pipera/tazobactam, with the reference strain ATCC 19606) and the yeast strain Candida albicans (ATCC 64549). Mupirocin (GlaxoSmithKline) and fusidic acid (LEO Pharma) were used as comparative control antibiotics.

[2] = system: P. aeruginosa (ATCC 15442); assay: Minimal microbicidal concentration (MMC99) assay; assay type: cell-based, Pseudomonas aeruginosa; conditions: for MMC99, P. aeruginosa ATCC 15442, 0.037% BHI / MMC99, P. aeruginosa ATCC 15442, 50% h.i. SWF: Table 3 panel
Description: as §1, §2

[3] = system: Staphylococcus epidermidis (ATCC 12228); assay: Minimal microbicidal concentration (MMC99) assay; assay type: cell-based; conditions: Table 3 panel, up to 200 mg/L, duplicates, maximum of at least two independent experiments
Description: as §1, §2

[4] = system: Acinetobacter baumannii (CCUG 58437); assay: Minimal microbicidal concentration (MMC99) assay; assay type: cell-based; conditions: Table 3 panel, multiresistant clinical isolate, up to 200 mg/L, duplicates, maximum of at least two independent experiments
Description: as §1, §2

[5] = system: Escherichia coli (ATCC 11775); assay: Minimal microbicidal concentration (MMC99) assay; assay type: cell-based; conditions: Table 3 panel, up to 200 mg/L, duplicates, maximum of at least two independent experiments
Description: as §1, §2

[6] = system: Klebsiella pneumoniae (CCUG 59413); assay: Minimal microbicidal concentration (MMC99) assay; assay type: cell-based; conditions: Table 3 panel, multiresistant clinical isolate, up to 200 mg/L, duplicates, maximum of at least two independent experiments
Description: as §1, §2

[7] = system: Streptococcus pyogenes (ATCC 12344); assay: Minimal microbicidal concentration (MMC99) assay; assay type: cell-based; conditions: Table 3 panel, up to 200 mg/L, duplicates, maximum of at least two independent experiments
Description: as §1, §2

[8] = system: Candida albicans (ATCC 64549); assay: Minimal microbicidal concentration (MMC99) assay; assay type: cell-based; conditions: Table 3 panel, yeast, up to 200 mg/L, duplicates, maximum of at least two independent experiments
Description: as §1, §2

MRSA (ATCC 33591) [9] = assay: Minimal microbicidal concentration (MMC99) assay; assay type: cell-based, methicillin-resistant S. aureus; conditions: Table 3 panel, up to 200 mg/L, duplicates, maximum of at least two independent experiments
Description: as §1
CEN1 HC was further screened for microbicidal activity against a panel of microbial strains using the MMC99 assay, as described above, except using only two different assay media; 0.037% BHI and 50% h.i. SWF. […]

[10] = system: Propionibacterium acnes (ATCC 6919); assay: Minimal microbicidal concentration (MMC99) assay; assay type: cell-based; conditions: Table 3 panel, up to 200 mg/L, duplicates, maximum of at least two independent experiments
Description: as §1, §2

MRSA (ATCC 33591) [11] = assay: In vitro multistep resistance assay (MMC99 after passages); assay type: cell-based, methicillin-resistant S. aureus
Description: (§3) S. aureus (ATCC 12600) and MRSA (ATCC 33591) were cultured according to the protocol described above and diluted to 10^8 CFU/mL in 0.037% BHI as estimated by measuring OD600. The multistep resistance assay was performed as previously described (Kosowska-Shick et al. [2006]). Peptide dilutions were prepared in twofold dilution steps in the concentration range from 0.75 mg/L to 96 mg/L in a volume of 1 mL using 0.37% BHI medium. The same peptide concentration range was used during all passages and new peptide dilutions were prepared each day from stock solutions. Mupirocin (Applichem), the active substance in the conventional topical antibiotic Bactroban, was used as a comparator. The antibiotic control was handled in the same way as the peptides except that the concentration range of mupirocin was 0.003 mg/L to 3 mg/L.
(§4) An aliquot of 10 μL (10^8 CFU/mL) of the bacterial suspension was added to the peptide dilutions, to the positive antibiotic control, and to a negative control incubated without peptide, and the suspensions were incubated at 37°C for 24 h. Turbidity of the overnight cultures was determined by OD600 measurements. The OD600 of bacteria/peptide suspensions was calculated by subtracting the OD600 of the peptide mixed with medium from the OD600 measured on the overnight cultures. […]

S. aureus (ATCC 12600) [12] = assay: as above; assay type: cell-based, Staphylococcus aureus
Description: as §3, §4

[13] = Table 3 panel, up to 200 mg/L, duplicates, maximum of at least two independent experiments
[14] = up to 200 mg/L, duplicates, maximum of at least two independent experiments
[15] = after 14 days of cultivation under selection pressure, 0.37% BHI, 24 h passages
[16] = multistep resistance assay, before passaging (day 0)
[17] = Table 2 screen, medium 0.037% BHI + 85 mM NaCl, 2 h at 37°C, up to 200 mg/L, duplicates, maximum of at least two independent experiments
[18] = Table 2 screen, medium 0.037% BHI + 150 mM NaCl, 2 h at 37°C, up to 200 mg/L, duplicates, maximum of at least two independent experiments

Compound | MMC99, S. aureus ATCC 12600, 50% h.i. SWF (S. aureus (ATCC 12600) [1]; [13]) | MMC99, P. aeruginosa ATCC 15442, 0.037% BHI [2, 14] | MMC99, P. aeruginosa ATCC 15442, 50% h.i. SWF [2, 14] | MMC99, S. epidermidis ATCC 12228, 0.037% BHI [3] | MMC99, S. epidermidis ATCC 12228, 50% h.i. SWF [3] | MMC99, A. baumannii CCUG 58437, 0.037% BHI [4] | MMC99, A. baumannii CCUG 58437, 50% h.i. SWF [4] | MMC99, E. coli ATCC 11775, 0.037% BHI [5] | MMC99, E. coli ATCC 11775, 50% h.i. SWF [5] | MMC99, K. pneumoniae CCUG 59413, 0.037% BHI [6] | MMC99, K. pneumoniae CCUG 59413, 50% h.i. SWF [6] | MMC99, S. pyogenes ATCC 12344, 0.037% BHI [7] | MMC99, S. pyogenes ATCC 12344, 50% h.i. SWF [7] | MMC99, C. albicans ATCC 64549, 0.037% BHI [8] | MMC99, C. albicans ATCC 64549, 50% h.i. SWF [8] | MMC99, MRSA ATCC 33591, 0.037% BHI (MRSA (ATCC 33591) [9]) | MMC99, MRSA ATCC 33591, 50% h.i. SWF (MRSA (ATCC 33591) [9]) | other results
CC(=O)O[C@H]1C[C@@]2(C)[C@@H](C[C@@H](O)[C@H]3[C@@]4(C)CC[C@@H](O)[C@@H](C)[C@@H]4CC[C@@]32C)/C1=C(\CCC=C(C)C)C(=O)O [fusidic acid] | 6.3 mg/L | >200 mg/L | >200 mg/L | 6.3 mg/L | 6.3 mg/L | >200 mg/L | >200 mg/L | >200 mg/L | >200 mg/L | >200 mg/L | >200 mg/L | >200 mg/L | >200 mg/L | >200 mg/L | >200 mg/L | 6.3 mg/L | 6.3 mg/L | 
C/C(=C\C(=O)OCCCCCCCCC(=O)O)C[C@@H]1OC[C@H](C[C@@H]2O[C@H]2[C@@H](C)[C@H](C)O)[C@@H](O)[C@H]1O [mupirocin, Mupirocin] | 3.1 mg/L | >200 mg/L | >200 mg/L | 3.1 mg/L | 3.1 mg/L | >200 mg/L | >200 mg/L | >200 mg/L | >200 mg/L | >200 mg/L | >200 mg/L | 6.3 mg/L | 3.1 mg/L | >200 mg/L | >200 mg/L | 3.1 mg/L | 3.1 mg/L | MMC99, S. aureus ATCC 12600, 0.037% BHI (S. aureus (ATCC 12600) [1]; Table 3 panel, 0.037% BHI, up to 200 mg/L, duplicates, maximum of at least two independent experiments, comparators Bactroban 2% ointment, Fucidin 2% cream): 3.1 mg/L; MMC99, P. acnes ATCC 6919, 0.037% BHI ([10]; 0.037% BHI): >200 mg/L; MMC99, P. acnes ATCC 6919, 50% h.i. SWF ([10]; 50% h.i. SWF): >200 mg/L; Concentration killing ≥99% of the bacteria (MMC99), day 14 (MRSA (ATCC 33591) [11]; [15]): > 384 mg/L; Concentration killing ≥99% of the bacteria (MMC99), day 0 (MRSA (ATCC 33591) [11]; [16]): 3 mg/L; Concentration killing ≥99% of the bacteria (MMC99), day 14 (S. aureus (ATCC 12600) [12]; [15]): 24 mg/L; Concentration killing ≥99% of the bacteria (MMC99), day 0 (S. aureus (ATCC 12600) [12]; [16]): 3 mg/L
GW(Br)FKKTFHKVSHAVKSGIHA [CEN1 HC-Br (1–20), C-terminal truncated variant of CEN1 HC-Br] |  |  |  |  |  |  |  |  |  |  |  |  |  |  |  |  |  | S. aureus MMC99, 0.037% BHI + 85 mM NaCl (S. aureus (ATCC 12600) [1]; [17]): >200 mg/L; S. aureus MMC99, 0.037% BHI + 150 mM NaCl (S. aureus (ATCC 12600) [1]; [18]): >200 mg/L; S. aureus MMC99, 0.037% BHI (S. aureus (ATCC 12600) [1]; Table 2 screen, medium 0.037% BHI, ≥99% reduction of bacteria, 2 h at 37°C, tested up to 200 mg/L, duplicates, maximum value from at least two independent experiments): 12.5 mg/L; S. aureus MMC99, 0.037% BHI with 85 mM or 150 mM NaCl (S. aureus (ATCC 12600) [1]; text summary over both NaCl concentrations of Table 2a): ≥ 200 mg/L; P. aeruginosa MMC99, 0.037% BHI + 85 mM NaCl [2, 17]: 12.5 mg/L; P. aeruginosa MMC99, 0.037% BHI + 150 mM NaCl [2, 18]: 25 mg/L; P. aeruginosa MMC99, 0.037% BHI ([2]; Table 2 screen, medium 0.037% BHI, 2 h at 37°C, up to 200 mg/L, duplicates, maximum of at least two independent experiments): 12.5 mg/L; P. aeruginosa MMC99, 0.037% BHI with 85 mM or 150 mM NaCl ([2]; text summary over both NaCl concentrations of Table 2b, compared to 0.037% BHI only): 12.5 to 100.0 mg/L
